Drawing on patent publication US11339150B2, “Benzimidazole compounds as HDAC6 inhibitors” (OnKure, Inc., priority 2019, dated 2022), this text covers inhibition for 22 compounds.

Where only a bound is given, the exact number is not on record here.

The target in the test is T1, HDAC6 (Homo sapiens, UniProt Q9UBN7).
T1 sequence (Q9UBN7 1-1215): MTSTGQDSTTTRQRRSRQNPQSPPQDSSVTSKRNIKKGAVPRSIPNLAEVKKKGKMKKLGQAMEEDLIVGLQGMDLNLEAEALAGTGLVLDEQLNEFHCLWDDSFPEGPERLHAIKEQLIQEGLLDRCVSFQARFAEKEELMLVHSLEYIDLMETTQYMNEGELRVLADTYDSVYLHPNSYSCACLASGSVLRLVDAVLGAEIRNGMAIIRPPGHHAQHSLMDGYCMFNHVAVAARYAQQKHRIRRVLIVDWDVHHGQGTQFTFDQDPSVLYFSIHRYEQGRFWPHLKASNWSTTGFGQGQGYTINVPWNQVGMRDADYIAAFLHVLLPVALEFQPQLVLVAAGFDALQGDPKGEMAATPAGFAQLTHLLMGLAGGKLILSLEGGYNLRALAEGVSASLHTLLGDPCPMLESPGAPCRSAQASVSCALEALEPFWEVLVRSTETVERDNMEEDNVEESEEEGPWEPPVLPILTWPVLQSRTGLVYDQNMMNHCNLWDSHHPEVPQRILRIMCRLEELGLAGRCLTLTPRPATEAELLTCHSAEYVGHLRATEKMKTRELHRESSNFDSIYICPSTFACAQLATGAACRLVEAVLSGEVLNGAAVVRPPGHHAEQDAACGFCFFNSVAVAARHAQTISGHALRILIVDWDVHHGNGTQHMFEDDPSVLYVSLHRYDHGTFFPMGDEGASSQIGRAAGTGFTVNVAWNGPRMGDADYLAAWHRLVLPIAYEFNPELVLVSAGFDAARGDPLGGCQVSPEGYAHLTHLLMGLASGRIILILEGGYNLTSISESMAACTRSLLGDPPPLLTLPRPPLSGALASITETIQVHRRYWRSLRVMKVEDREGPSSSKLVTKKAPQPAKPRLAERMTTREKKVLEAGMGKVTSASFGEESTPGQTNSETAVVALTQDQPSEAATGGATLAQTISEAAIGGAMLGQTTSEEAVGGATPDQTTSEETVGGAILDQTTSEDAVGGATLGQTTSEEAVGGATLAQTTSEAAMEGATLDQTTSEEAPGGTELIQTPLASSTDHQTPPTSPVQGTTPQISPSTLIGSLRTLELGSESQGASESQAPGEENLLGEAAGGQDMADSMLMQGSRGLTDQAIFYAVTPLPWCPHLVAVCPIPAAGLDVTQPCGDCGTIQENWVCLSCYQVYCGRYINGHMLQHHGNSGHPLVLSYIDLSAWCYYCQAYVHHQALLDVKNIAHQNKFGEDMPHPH
The test can be described thus: HDAC assay (fluorogenic substrate), HDAC6. Type of test: biochemical. The procedure:
Base Reaction buffer: 50 mM Tris-HCl, pH8.0, 137 mM NaCl, 2.7 mM KCl, and 1 mM MgCl2. Add fresh: 1 mg/ml BSA, 1% DMSO
Fluorogenic HDAC General Substrate: 50 μM, Arg-His-Lys-Lys(Ac)
• 1. Deliver 2× enzyme in wells of reaction plate except No Enzyme control wells. Add buffer in No En wells. • 2. Deliver compounds in 100% DMSO into the enzyme mixture by Acoustic technology (Echo550; nanoliter range). Spin down and pre-incubation. • 3. Deliver 2× Substrate Mixture (Fluorogenic HDAC Substrate and co-factor if applicable) in all reaction wells to initiate the reaction. Spin and shake. • 4. Incubate for 30 min for Class 2A, 1 hr for HDAC1, 2, 3, and 6, and 2 hr for the rest of HDACs and SIRTs at 30° C. with seal. Development Step: • 5. Add Developer with Trichostatin A (or Nicotinamide for SIRTs) to stop the reaction and to generate fluorescent color. • 6. Kinetic measurement for 1.5 hr with Envision with 15 min interval. (Ex/Em=360/460 nm) • 7. Take endpoint reading for analysis after the development reaches plateau.
A word on the inhibition: it is the drop in the measured response relative to a control, in per cent. Low values mean a response near the control, high ones a response far below the control. Regarding `CN(C)CCn1cnc2c(-c3ccccc3)cc(Nc3ncc(-c4nnc(C(F)F)o4)cn3)cc21` [Example 15, N-(5-(5-(difluoromethyl)-1,3,4-oxadiazol-2-yl)pyrimidin-2-yl)-1-(2-(dimethylamino)ethyl)-4-phenyl-1H-benzo[d]imidazol-6-amine], the inhibition at 10 µM was > 90%.

On to `Fc1ccc(-c2cc(Nc3ncc(-c4nnc(C(F)F)o4)cn3)cc3[nH]cnc23)c(F)c1` [Example 9, N-(5-(5-(difluoromethyl)-1,3,4-oxadiazol-2-yl)pyrimidin-2-yl)-4-(2,4-difluorophenyl)-1H-benzo[d]imidazol-6-amine], for which the inhibition at 10 µM was > 90%.

For `FC(F)c1nnc(-c2cnc(Nc3cc(-c4ccccc4)c4ncn(CC(F)(F)F)c4c3)nc2)o1` [Example 48, N-(5-(5-(difluoromethyl)-1,3,4-oxadiazol-2-yl)pyrimidin-2-yl)-4-phenyl-1-(2,2,2-trifluoroethyl)-1H-benzo[d]imidazol-6-amine], the inhibition at 10 µM was > 90%.

As to `Cn1nccc1-c1cc(Nc2ncc(-c3nnc(C(F)F)o3)cn2)cc2[nH]cnc12` [Example 40, N-(5-(5-(difluoromethyl)-1,3,4-oxadiazol-2-yl)pyrimidin-2-yl)-4-(1-methyl-1H-pyrazol-5-yl)-1H-benzo[d]imidazol-6-amine], the inhibition at 10 µM was > 90%.

For the compound `Fc1c(Nc2ncc(-c3nnc(C(F)F)o3)cn2)cc(-c2ccccc2)c2nc[nH]c12` [Example 39, N-(5-(5-(difluoromethyl)-1,3,4-oxadiazol-2-yl)pyrimidin-2-yl)-7-fluoro-4-phenyl-1H-benzo[d]imidazol-6-amine], the inhibition at 10 µM was > 90%.

On to `FC(F)c1nnc(-c2cnc(Nc3cc(-c4ccncc4)c4nc[nH]c4c3)nc2)o1` [Example 35, N-(5-(5-(difluoromethyl)-1,3,4-oxadiazol-2-yl)pyrimidin-2-yl)-4-(pyridin-4-yl)-1H-benzo[d]imidazol-6-amine], for which the inhibition at 10 µM is > 90%.

As for `FC(F)c1nnc(-c2cnc(Nc3cc(-c4ccc(N5CCOCC5)cc4)c4nc[nH]c4c3)nc2)o1` [Example 17, N-(5-(5-(difluoromethyl)-1,3,4-oxadiazol-2-yl)pyrimidin-2-yl)-4-(4-morpholinophenyl)-1H-benzo[d]imidazol-6-amine], the inhibition at 10 µM is > 90%.

On to `Fc1c(Nc2ncc(-c3nnc(C(F)F)o3)cn2)cc2[nH]cnc2c1-c1ccccc1` [Example 38, N-(5-(5-(difluoromethyl)-1,3,4-oxadiazol-2-yl)pyrimidin-2-yl)-5-fluoro-4-phenyl-1H-benzo[d]imidazol-6-amine], for which the inhibition at 10 µM is > 90%.

`CC(CO)n1cnc2c(-c3ccccc3)cc(Nc3ncc(-c4nnc(C(F)F)o4)cn3)cc21` (stereo not shown) [Example 29, 2-(6-((5-(5-(difluoromethyl)-1,3,4-oxadiazol-2-yl)pyrimidin-2-yl)amino)-4-phenyl-1H-benzo[d]imidazol-1-yl)propan-1-ol]: the inhibition at 10 µM was > 90%.

On to `C#CCn1cnc2c(-c3ccccc3)cc(Nc3ncc(-c4nnc(C(F)F)o4)cn3)cc21` [Example 47], for which the inhibition at 10 µM was > 90%.

For the compound `CN(c1cc(-c2ccccc2)c2nc[nH]c2c1)c1ncc(-c2nnc(C(F)F)o2)cn1` [Example 7, N-(5-(5-(difluoromethyl)-1,3,4-oxadiazol-2-yl)pyrimidin-2-yl)-N-methyl-4-phenyl-1H-benzo[d]imidazol-6-amine], the inhibition at 10 µM is > 40%.

For the compound `FC(F)c1nnc(-c2cnc(Nc3cc(-c4cn[nH]c4)c4nc[nH]c4c3)nc2)o1` [Example 44, N-(5-(5-(difluoromethyl)-1,3,4-oxadiazol-2-yl)pyrimidin-2-yl)-4-(1H-pyrazol-4-yl)-1H-benzo[d]imidazol-6-amine], the inhibition at 10 µM is > 90%.

Take `OCCn1cnc2cc(Nc3ncc(-c4nnc(C(F)F)o4)cn3)cc(-c3ccccc3)c21` [Example 24, 2-(5-((5-(5-(difluoromethyl)-1,3,4-oxadiazol-2-yl)pyrimidin-2-yl)amino)-7-phenyl-1H-benzo[d]imidazol-1-yl)ethan-1-ol]: the inhibition at 10 µM was > 90%.

Take `O=S(=O)(NCC1CC1)c1cc(Nc2ncc(-c3nnc(C(F)F)o3)cn2)cc2c1ncn2CCO` [Example 26, N-(cyclopropylmethyl)-6-((5-(5-(difluoromethyl)-1,3,4-oxadiazol-2-yl)pyrimidin-2-yl)amino)-1-(2-hydroxyethyl)-1H-benzo[d]imidazole-4-sulfonamide]: the inhibition at 10 µM is > 90%.

As for `OCCn1cnc2c(-c3ccn[nH]3)cc(Nc3ncc(-c4nnc(C(F)F)o4)cn3)cc21` [Example 37, 2-(6-((5-(5-(difluoromethyl)-1,3,4-oxadiazol-2-yl)pyrimidin-2-yl)amino)-4-(1H-pyrazol-5-yl)-1H-benzo[d]imidazol-1-yl)ethan-1-ol], the inhibition at 10 µM was > 90%.

In the case of `Cn1cnc2c(-c3ccccc3)cc(Nc3ncc(-c4nnc(C(F)F)o4)cn3)cc21` [Example 4, N-(5-(5-(difluoromethyl)-1,3,4-oxadiazol-2-yl)pyrimidin-2-yl)-1-methyl-4-phenyl-1H-benzo[d]imidazol-6-amine], the inhibition at 10 µM is > 70%.

With `CC(C)(C)c1cc(Nc2ncc(-c3nnc(C(F)F)o3)cn2)cc2c1ncn2CCO` [Example 34, 2-(4-(tert-butyl)-6-((5-(5-(difluoromethyl)-1,3,4-oxadiazol-2-yl)pyrimidin-2-yl)amino)-1H-benzo[d]imidazol-1-yl)ethan-1-ol], the inhibition at 10 µM is > 90%.

As for `FC(F)c1nnc(-c2cnc(Nc3cc(C(F)(F)F)c4nc[nH]c4c3)nc2)o1` [Example 23, N-(5-(5-(difluoromethyl)-1,3,4-oxadiazol-2-yl)pyrimidin-2-yl)-4-(trifluoromethyl)-1H-benzo[d]imidazol-6-amine], the inhibition at 10 µM was > 90%.

As to `FC(F)c1nnc(-c2cnc(Nc3cc(-c4ccccn4)c4nc[nH]c4c3)nc2)o1` [Example 10, N-(5-(5-(difluoromethyl)-1,3,4-oxadiazol-2-yl)pyrimidin-2-yl)-4-(pyridin-2-yl)-1H-benzo[d]imidazol-6-amine], the inhibition at 10 µM was > 90%.

`FC(F)c1nnc(-c2cnc(Nc3ccc4nc[nH]c4c3)nc2)o1` [Example 19, N-(5-(5-(difluoromethyl)-1,3,4-oxadiazol-2-yl)pyrimidin-2-yl)-1H-benzo[d]imidazol-6-amine]: the inhibition at 10 µM is > 90%.

Turning to `FC(F)c1nnc(-c2cnc(Nc3cc(Br)c4nc[nH]c4c3)nc2)o1` [Example 2, 4-bromo-N-(5-(5-(difluoromethyl)-1,3,4-oxadiazol-2-yl)pyrimidin-2-yl)-1H-benzo[d]imidazol-6-amine], the inhibition at 10 µM was > 90%.

On to `OCCn1cnc2c(-c3ccccn3)cc(Nc3ncc(-c4nnc(C(F)F)o4)cn3)cc21` [Example 21, 2-(6-((5-(5-(difluoromethyl)-1,3,4-oxadiazol-2-yl)pyrimidin-2-yl)amino)-4-(pyridin-2-yl)-1H-benzo[d]imidazol-1-yl)ethan-1-ol], for which the inhibition at 10 µM is > 90%.
